For 13 compounds, IC50 results are on record in patent publication US11866405B2, “Substituted indazoles as IRAK4 inhibitors” (AstraZeneca AB, priority 2020, dated 2024).

In assay [1] the target is human recombinant IRAK4 protein (Homo sapiens (Human), UniProt Q9NWZ3). Kind of assay: IRAK4 enzyme assay (mass spectrometry readout). Format: biochemical. The note with it: 3 mM ATP, 0.2 nM enzyme; geometric mean of at least n=2, * single experiment. A digest of the protocol: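 0.2 nM IRAK4 preincubated 15 min at room temperature with compound (10-point half-log series, top 1 μM or 10 μM) in pH 7.4 Tris buffer with 3 mM ATP; 10 μM peptide substrate added, 2 h at room temperature, formic acid stop. Phospho/unphospho peptide ratio by LC-MS/MS; potency from curve fit, geometric mean of n≥2 or single run.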
human recombinant IRAK4 protein, sequence (Q9NWZ3 whole entry): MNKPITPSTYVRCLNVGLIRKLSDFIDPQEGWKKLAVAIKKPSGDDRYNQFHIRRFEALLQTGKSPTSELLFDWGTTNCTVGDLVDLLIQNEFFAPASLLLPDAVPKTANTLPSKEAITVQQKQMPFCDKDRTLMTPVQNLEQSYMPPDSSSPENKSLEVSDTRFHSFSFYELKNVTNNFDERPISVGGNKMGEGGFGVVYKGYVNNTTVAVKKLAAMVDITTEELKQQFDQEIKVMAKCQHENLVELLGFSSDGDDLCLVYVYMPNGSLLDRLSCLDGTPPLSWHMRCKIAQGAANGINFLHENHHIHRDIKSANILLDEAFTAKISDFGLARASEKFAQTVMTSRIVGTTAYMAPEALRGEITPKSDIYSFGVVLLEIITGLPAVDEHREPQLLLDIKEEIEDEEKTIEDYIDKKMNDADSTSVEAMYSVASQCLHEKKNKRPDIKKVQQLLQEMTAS

In assay [2] the target is IRAK4 auto-phosphorylation (Homo sapiens (Human), UniProt Q9NWZ3). Kind of assay: IRAK4 phosphorylation cell assay in IL-1β-stimulated Karpas-299 cells. The following applies: IL-1β 22.7 ng/mL, pIRAK4 (Thr345/Ser346), geometric mean of at least 2 experiments. Format: cell-based. A digest of the protocol: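 Karpas-299 cells were preincubated 1 h at 37 °C with compound (10-point half-log series, top 30 μM), then stimulated 10 min with 22.7 ng/mL IL-1β. Cells were fixed and stained for pIRAK4 (Thr345/Ser346), and per-cell fluorescence was quantified by high-content imaging. IC50 values are geometric means of at least 2 experiments.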
IRAK4 auto-phosphorylation, sequence (Q9NWZ3 whole entry): as above

Assay [3] has as its system IL-1β stimulated IL-8 release in hTHP1 cells. As to the kind of experiment: IL-1β-induced IL-8 release in human THP-1 monocyte cell line. The note with it: THP-1 cells, IL-1β 1.8 ng/mL. Format: cell-based. As to the method: Effect of IRAK4 Inhibitors on IL-1β-Induced Cytokine Release in Human THP-1 Monocyte Cell Line
THP-1 cells were cultured in RPMI 1640 (Gibco 72400-021) containing 10% FBS (Gibco 10270-106), 1 mM Na-pyruvate (Gibco 11360-070) and 100 U/mL Penicillin-Streptomycin (Gibco 15140-122). Cells were plated at 5×10^4 cells per well in 384 well Echo certified plates (Labcyte PPT-0200) to which compounds had been added at various concentrations (10 point half log dose response with a final top concentration of 10 μM) using an Echo 655 (Labcyte Inc). The plate was incubated for 1 h at 37° C., then recombinant […] (R&D Systems 201-LB-025/CF) was added to a final concentration of 1.8 ng/mL. The plates were incubated at 37° C. for 18h. The plates were centrifuged at 250×g for four minutes, then 1.6 μL of the cell supernatant was transferred to a white low volume 384 well plate (Greiner #784075) using acoustic dispensing on an Echo 655. Next, 200 nL of acceptor bead (5 mg/mL) and biotinylated anti-IL-8 antibody (500 nM) was added using acoustic dispensing (beads and antibody were from a PerkinElmer 18 Alpha LISA detection kit, AL224C). The plate was sealed, briefly centrifuged, then incubated at room temperature for 1 h. Afterwards, 200 nL of donor bead solution (5 mg/mL) was added, the plate sealed and briefly centrifuged, then incubated for 1 h before being read on an Envision plate reader to allow determination the concentration of IRAK4 inhibitor required to effect a 50% reduction in the amount of IL-8 released following IL-1β stimulation in THP1 cells (Table 2). The quantified data were analysed in Genedata Screener 15 (Genedata AG). Data presented are the geometric mean of at least n=2, or as denoted by an * are obtained from a single experiment.

Where [4] appears, read: Homo sapiens, THP-1, 18 h, geometric mean of at least n=2, * n = 1, read-out: hTHP1, IL1β stim, IL8 release red. IC50.
Setting [5] is: 18 h, geometric mean of at least n=2, * n = 1, read-out: hTHP1, IL1β stim, IL8 release red. IC50.

Where two headings read alike, the source gives them in different places.

A word on the IC50: it is the point on the concentration scale where inhibition reaches its midpoint. As for `O=C(Nc1cnn2cccnc12)c1cc2cn([C@H]3CCC[C@H](O)C3)nc2cc1OC1CC1` (single isomer, unassigned) [Example 19], the IC50 came to 1 nM in assay [1], 47 nM in assay [2] and 35 nM in assay [3] (setting [4]).
For the compound `O=C(Nc1cnn2cccnc12)c1cc2cn([C@H]3CCC[C@H](O)C3)nc2cc1OC1CC1` (single isomer, unassigned) [Example 20], the IC50 in assay [1] was found to be 0.7 nM; in assay [2], 35 nM; in assay [3] (setting [5]) it was 31 nM.
For `CC(=O)N1CC2(CC[C@@H](n3cc4cc(C(=O)Nc5cnn6cccnc56)c(OC5CC5)cc4n3)[C@H](C)C2)C1` (single isomer, unassigned) [Example 29], the IC50 in assay [1] was 0.5 nM; in assay [2], 31 nM; in assay [3] (setting [4]), 20 nM.
`CC(=O)N1CC2(CC[C@@H](n3cc4cc(C(=O)Nc5cnn6cccnc56)c(OC5CC5)cc4n3)[C@@H](C)C2)C1` (single isomer, unassigned) [Example 30]: the IC50 in assay [1] is below 0.3 nM; in assay [2], 46 nM; in assay [3] (setting [5]), 14 nM.
For `CC(=O)N1CC2(CC[C@@H](n3cc4cc(C(=O)Nc5cnn6cccnc56)c(OC5CC5)cc4n3)[C@@H](C)C2)C1` (single isomer, unassigned) [Example 31] the same measures were 0.8 nM, 71 nM and 32 nM.
`COc1cc2nn([C@H]3CCC(N(C)C(C)=O)C[C@@H]3C)cc2cc1C(=O)Nc1cnc2cccnn12` (single isomer, unassigned) [Example 34, N-(imidazo[1,2-b]pyridazin-3-yl)-6-methoxy-2-((1S,2S,4R*)-2-methyl-4-(N-methylacetamido)cyclohexyl)-2H-indazole-5-carboxamide]: the figures for the IC50 in assay [1], in assay [2] and in assay [3] (setting [4]) were 2 nM, 31 nM and 22 nM, respectively.
On to `COc1cc2nn([C@@H]3CCC(N(C)C(C)=O)C[C@H]3C)cc2cc1C(=O)Nc1cnc2cccnn12` (single isomer, unassigned) [Example 37, N-(imidazo[1,2-b]pyridazin-3-yl)-6-methoxy-2-(1R,2R,4R*)-2-methyl-4-(N-methylacetamido)cyclohexyl)-2H-indazole-5-carboxamide], for which the IC50 was 0.3 nM in assay [1], 6 nM in assay [2] and 3 nM in assay [3] (setting [4]).
For `COc1cc2nn([C@H]3CC[C@H](O)C[C@@H]3C)cc2cc1C(=O)Nc1cnn2cccnc12` (single isomer, unassigned) [Example 38] the same measures were 4.6 nM, 186 nM and 31 nM.
In the same order, the values of `C[C@H]1C[C@@H](O)CC[C@@H]1n1cc2cc(C(=O)Nc3cnn4cccnc34)c(OC3CC3)cc2n1` (single isomer, unassigned) [Example 45] are 1.2 nM, 70 nM and 46 nM.
For `COc1cc2nn([C@@H]3CCC4(C[C@@H]3C)CN(C(C)=O)C4)cc2cc1C(=O)Nc1cnc2cccnn12` (single isomer, unassigned) [Example 64], the IC50 in assay [1] is below 0.5 nM; in assay [2], 38 nM; in assay [3] (setting [5]), 18 nM.
In the same order, the values of `COc1cc2nn([C@@H]3CCC4(C[C@@H]3C)CN(C(C)=O)C4)cc2cc1C(=O)Nc1cnc2cccnn12` (single isomer, unassigned) [Example 65] are 1.1 nM, 44 nM and 52 nM.
Regarding `COc1cc2nn([C@@H]3CCC4(C[C@H]3C)CN(C(C)=O)C4)cc2cc1C(=O)Nc1cnc2cccnn12` (single isomer, unassigned) [Example 66], the IC50 was below 0.5 nM in assay [1], 23 nM in assay [2] and 18 nM in assay [3] (setting [5]).
Consider `COc1cc2nn([C@@H]3CCC4(C[C@H]3C)CN(C(C)=O)C4)cc2cc1C(=O)Nc1cnc2cccnn12` (single isomer, unassigned) [Example 67], for which the IC50 turned out to be 4.3 nM in assay [1], 144 nM in assay [2] and 91 nM in assay [3] (setting [5]).
